Reference: PubChem BioAssay AID1745844 (Carcinogenic Potency Database (CPDB), 2022)
Active and inactive are the calls of the source. The rule behind the calls is not given here.

Tested on: rodent lifetime carcinogenesis bioassay, tumor incidence TD50
Test: chronic cancer bioassays in animals – CPDB, compiled studies (AID 1745844)

Compound: Cc1ccc([N+](=O)[O-])cc1N
- TD50 (mouse, strain B6C3F1, females, in feed, site: all sites + liver, lesion: hemangiosarcoma + hepatocellular carcinoma, dosed 78 weeks, study length 96 weeks): 242 mg/kg/day
- TD50 (mouse, strain B6C3F1, females, in feed, site: all sites, lesion: hemangiosarcoma, dosed 78 weeks, study length 96 weeks): 1860 mg/kg/day
- TD50 (mouse, strain B6C3F1, females, in feed, site: any site (literature study), lesion: several types, types named in the paper, dosed 78 weeks, study length 96 weeks): 989 mg/kg/day
- TD50 (mouse, strain B6C3F1, females, in feed, site: liver, lesion: hepatocellular adenoma + hepatocellular carcinoma + neoplastic nodule, dosed 78 weeks, study length 96 weeks): 288 mg/kg/day
- TD50 (mouse, strain B6C3F1, females, in feed, site: liver, lesion: hepatocellular carcinoma, dosed 78 weeks, study length 96 weeks): 288 mg/kg/day
- TD50 (mouse, strain B6C3F1, males, in feed, site: all sites + liver, lesion: hemangioma + hemangiosarcoma + hepatocellular carcinoma, dosed 78 weeks, study length 95 weeks): 269 mg/kg/day
- TD50 (mouse, strain B6C3F1, males, in feed, site: all sites, lesion: hemangioma + hemangiosarcoma, dosed 78 weeks, study length 95 weeks): 2550 mg/kg/day
- TD50 (mouse, strain B6C3F1, males, in feed, site: any site (literature study), lesion: several types, types named in the paper, dosed 78 weeks, study length 95 weeks): 431 mg/kg/day
- TD50 (mouse, strain B6C3F1, males, in feed, site: liver, lesion: hepatocellular adenoma + hepatocellular carcinoma + neoplastic nodule, dosed 78 weeks, study length 95 weeks): 266 mg/kg/day
- TD50 (mouse, strain B6C3F1, males, in feed, site: liver, lesion: hepatocellular carcinoma, dosed 78 weeks, study length 95 weeks): 266 mg/kg/day
- carcinogen call (rat, strain Fischer 344, females, in feed, site: any site (literature study), lesion: several types, types named in the paper, dosed 78 weeks, study length 108 weeks): negative (inactive)
- TD50 (rat, strain Fischer 344, females, in feed, site: liver, lesion: hepatocellular adenoma + hepatocellular carcinoma + neoplastic nodule, dosed 78 weeks, study length 108 weeks): 43 mg/kg/day
- TD50 (rat, strain Fischer 344, males, in feed, site: any site (literature study), lesion: several types, types named in the paper, dosed 78 weeks, study length 107 weeks): 43.7 mg/kg/day
- TD50 (rat, strain Fischer 344, males, in feed, site: liver, lesion: hepatocellular carcinoma, dosed 78 weeks, study length 107 weeks): 27.7 mg/kg/day (inactive)

Compound: NC(=O)C(=Cc1ccc([N+](=O)[O-])o1)c1ccco1
- TD50 (hamster, strain Syrian Golden, females, in feed, site: esophagus, lesion: papilloma, dosed 94 weeks, study length 94 weeks): 2340 mg/kg/day
- TD50 (hamster, strain Syrian Golden, females, in feed, site: forestomach, lesion: several types, types named in the paper, dosed 94 weeks, study length 94 weeks): 59.1 mg/kg/day
- TD50 (hamster, strain Syrian Golden, females, in feed, site: forestomach, lesion: squamous-cell carcinoma, dosed 94 weeks, study length 94 weeks): 2340 mg/kg/day
- TD50 (hamster, strain Syrian Golden, males, in feed, site: esophagus, lesion: several types, types named in the paper, dosed 94 weeks, study length 94 weeks): 328 mg/kg/day
- TD50 (hamster, strain Syrian Golden, males, in feed, site: esophagus, lesion: squamous-cell carcinoma, dosed 94 weeks, study length 94 weeks): 2180 mg/kg/day
- TD50 (hamster, strain Syrian Golden, males, in feed, site: forestomach, lesion: several types, types named in the paper, dosed 94 weeks, study length 94 weeks): 30.5 mg/kg/day
- TD50 (hamster, strain Syrian Golden, males, in feed, site: forestomach, lesion: squamous-cell carcinoma, dosed 94 weeks, study length 94 weeks): 164 mg/kg/day
- TD50 (mouse, strain CDF1, females, in feed, site: forestomach, lesion: papilloma, dosed 78 weeks, study length 104 weeks): 714 mg/kg/day
- TD50 (mouse, strain CDF1, females, in feed, site: forestomach, lesion: squamous-cell carcinoma, dosed 78 weeks, study length 104 weeks): 2540 mg/kg/day
- TD50 (mouse, strain CDF1, females, in feed, site: lung, lesion: one or several types, types not named, dosed 78 weeks, study length 104 weeks): 16400 mg/kg/day
- TD50 (mouse, strain CDF1, males, in feed, site: forestomach, lesion: papilloma, dosed 78 weeks, study length 104 weeks): 753 mg/kg/day
- TD50 (mouse, strain CDF1, males, in feed, site: forestomach, lesion: squamous-cell carcinoma, dosed 78 weeks, study length 104 weeks): 928 mg/kg/day
- TD50 (mouse, strain CDF1, males, in feed, site: lung, lesion: one or several types, types not named, dosed 78 weeks, study length 104 weeks): 9270 mg/kg/day
- TD50 (mouse, strain DDY, males, in feed, site: any site (literature study), lesion: several types, types named in the paper, dosed 44 weeks, study length 80 weeks): 60.8 mg/kg/day
- TD50 (mouse, strain DDY, males, in feed, site: forestomach, lesion: several types, types named in the paper, dosed 44 weeks, study length 80 weeks): 60.8 mg/kg/day
- TD50 (mouse, strain DDY, males, in feed, site: forestomach, lesion: squamous-cell carcinoma, dosed 44 weeks, study length 80 weeks): 72.9 mg/kg/day
- TD50 (mouse, strain DDY, males, in feed, site: lung, lesion: adenoma, dosed 44 weeks, study length 80 weeks): 299 mg/kg/day
- TD50 (mouse, strain ICR/Jcl, females, in feed, site: all sites, lesion: leukemia, dosed 62 weeks, study length 62 weeks): 1800 mg/kg/day
- TD50 (mouse, strain ICR/Jcl, females, in feed, site: forestomach, lesion: several types, types named in the paper, dosed 62 weeks, study length 62 weeks): 95 mg/kg/day
- TD50 (mouse, strain ICR/Jcl, females, in feed, site: forestomach, lesion: squamous-cell carcinoma, dosed 62 weeks, study length 62 weeks): 225 mg/kg/day
- TD50 (mouse, strain ICR/Jcl, females, in feed, site: liver, lesion: hepatocellular tumor, dosed 104 weeks, study length 104 weeks): 7070 mg/kg/day (inactive)
- TD50 (mouse, strain ICR/Jcl, males, in feed, site: forestomach, lesion: several types, types named in the paper, dosed 62 weeks, study length 62 weeks): 90.3 mg/kg/day
- TD50 (mouse, strain ICR/Jcl, males, in feed, site: forestomach, lesion: squamous-cell carcinoma, dosed 62 weeks, study length 62 weeks): 208 mg/kg/day
- carcinogen call (mouse, strain ICR/Jcl, males, in feed, site: liver, lesion: hepatocellular tumor, dosed 104 weeks, study length 104 weeks): negative (inactive)
- TD50 (rat, strain Sprague-Dawley, females, in feed, site: mammary gland, lesion: adenocarcinoma, dosed 46 weeks, study length 66 weeks): 26.4 mg/kg/day
- TD50 (rat, strain Sprague-Dawley, females, in feed, site: mammary gland, lesion: several types, types named in the paper, dosed 46 weeks, study length 66 weeks): 11.4 mg/kg/day
- TD50 (rat, strain Wistar, females, in feed, site: forestomach, lesion: papilloma, dosed 78 weeks, study length 104 weeks): 424 mg/kg/day
- TD50 (rat, strain Wistar, females, in feed, site: liver, lesion: hemangioendothelial sarcoma, dosed 78 weeks, study length 104 weeks): 2000 mg/kg/day
- TD50 (rat, strain Wistar, females, in feed, site: mammary gland, lesion: several types, types named in the paper, dosed 78 weeks, study length 104 weeks): 74.7 mg/kg/day
- TD50 (rat, strain Wistar, males, in feed, site: forestomach, lesion: papilloma, dosed 78 weeks, study length 104 weeks): 409 mg/kg/day
- TD50 (rat, strain Wistar, males, in feed, site: liver, lesion: hemangioendothelial sarcoma, dosed 78 weeks, study length 104 weeks): 1600 mg/kg/day
- TD50 (rat, strain Wistar, males, in feed, site: mammary gland, lesion: several types, types named in the paper, dosed 78 weeks, study length 104 weeks): 1200 mg/kg/day

Compound: C=CCc1ccc(O)c(OC)c1
- TD50 (mouse, strain B6C3F1, females, in feed, site: liver, lesion: hepatocellular adenoma + hepatocellular carcinoma + neoplastic nodule, dosed 103 weeks, study length 104 weeks): 2910 mg/kg/day
- TD50 (mouse, strain B6C3F1, females, in feed, site: liver, lesion: hepatocellular adenoma + hepatocellular carcinoma, dosed 103 weeks, study length 104 weeks): 2910 mg/kg/day
- TD50 (mouse, strain B6C3F1, females, in feed, site: lung, lesion: alveolar/bronchiolar adenoma + alveolar/bronchiolar carcinoma, dosed 103 weeks, study length 104 weeks): 25300 mg/kg/day
- TD50 (mouse, strain B6C3F1, males, in feed, site: any site (literature study), lesion: several types, types named in the paper, dosed 103 weeks, study length 104 weeks): 1550 mg/kg/day
- TD50 (mouse, strain B6C3F1, males, in feed, site: liver, lesion: hepatocellular adenoma + hepatocellular carcinoma + neoplastic nodule, dosed 103 weeks, study length 104 weeks): 451 mg/kg/day
- TD50 (mouse, strain B6C3F1, males, in feed, site: liver, lesion: hepatocellular adenoma + hepatocellular carcinoma, dosed 103 weeks, study length 104 weeks): 451 mg/kg/day
- TD50 (mouse, strain B6C3F1, males, in feed, site: liver, lesion: hepatocellular adenoma, dosed 103 weeks, study length 104 weeks): 781 mg/kg/day
- TD50 (mouse, strain B6C3F1, males, in feed, site: liver, lesion: hepatocellular carcinoma, dosed 103 weeks, study length 104 weeks): 710 mg/kg/day
- TD50 (mouse, strain B6C3F1, males, in feed, site: thyroid gland, lesion: follicular-cell adenoma, dosed 103 weeks, study length 104 weeks): 8520 mg/kg/day
- carcinogen call (mouse, strain Charles River CD1, females, in feed, site: liver, lesion: one or several types, types not named, dosed 50 weeks, study length 78 weeks): negative (inactive)
- carcinogen call (mouse, strain Charles River CD1, females, in feed, site: lung, lesion: adenoma, dosed 50 weeks, study length 78 weeks): negative (inactive)
- carcinogen call (rat, strain Fischer 344, females, in feed, site: any site (literature study), lesion: several types, types named in the paper, dosed 103 weeks, study length 104 weeks): negative (inactive)
- TD50 (rat, strain Fischer 344, males, in feed, site: any site (literature study), lesion: several types, types named in the paper, dosed 103 weeks, study length 104 weeks): 293 mg/kg/day
- TD50 (rat, strain Fischer 344, males, in feed, site: lung, lesion: alveolar/bronchiolar adenoma + alveolar/bronchiolar carcinoma, dosed 103 weeks, study length 104 weeks): 424 mg/kg/day (inactive)

Compound: CCOCCc1c(-c2ccccc2)nc(N)n2ncnc12
- TD50 (rat, strain Charles River CD (Sprague-Dawley), females, in feed, site: liver, lesion: hepatocellular adenoma, dosed 97 weeks, study length 105 weeks): 307 mg/kg/day
- TD50 (rat, strain Charles River CD (Sprague-Dawley), females, in feed, site: liver, lesion: hepatocellular carcinoma, dosed 97 weeks, study length 105 weeks): 646 mg/kg/day
- TD50 (rat, strain Charles River CD (Sprague-Dawley), females, in feed, site: mammary gland, lesion: adenoma, dosed 97 weeks, study length 105 weeks): 3010 mg/kg/day
- TD50 (rat, strain Charles River CD (Sprague-Dawley), females, in feed, site: mammary gland, lesion: carcinoma, dosed 97 weeks, study length 105 weeks): 669 mg/kg/day
- TD50 (rat, strain Charles River CD (Sprague-Dawley), females, in feed, site: thyroid gland, lesion: adenoma, dosed 97 weeks, study length 105 weeks): 9710 mg/kg/day
- TD50 (rat, strain Charles River CD (Sprague-Dawley), males, in feed, site: liver, lesion: hepatocellular adenoma, dosed 97 weeks, study length 105 weeks): 2530 mg/kg/day
- TD50 (rat, strain Charles River CD (Sprague-Dawley), males, in feed, site: liver, lesion: hepatocellular carcinoma, dosed 97 weeks, study length 105 weeks): 4160 mg/kg/day
- TD50 (rat, strain Charles River CD (Sprague-Dawley), males, in feed, site: thyroid gland, lesion: adenoma, dosed 97 weeks, study length 105 weeks): 11000 mg/kg/day
- TD50 (rat, strain Charles River CD (Sprague-Dawley), males, in feed, site: thyroid gland, lesion: carcinoma, dosed 97 weeks, study length 105 weeks): 12400 mg/kg/day

Compound: CC(O)CN(CC(C)O)CC(C)O (configuration not stated)
- carcinogen call (rat, strain Wistar, males, in feed, site: liver, lesion: one or several types, types not named, dosed 102 weeks, study length 102 weeks): negative (inactive)

Compound: O=C(O)c1ccc(O)c(O)c1
- carcinogen call (hamster, strain Syrian Golden, females, in feed, site: liver, lesion: one or several types, types not named, dosed 49 weeks, study length 52 weeks): negative (inactive)
- carcinogen call (hamster, strain Syrian Golden, females, in feed, site: lung, lesion: one or several types, types not named, dosed 49 weeks, study length 52 weeks): negative (inactive)

Compound: COc1cc(C=NNC(=O)c2ccncc2)ccc1O
- TD50 (mouse, strain Not specified, both sexes, by gavage, site: any site (literature study), lesion: several types, types named in the paper, dosed 52 weeks, study length 52 weeks): 27.4 mg/kg/day
- TD50 (mouse, strain Not specified, both sexes, by gavage, site: lung, lesion: adenocarcinoma, dosed 52 weeks, study length 52 weeks): 45 mg/kg/day
- TD50 (mouse, strain Not specified, both sexes, by gavage, site: mammary gland, lesion: adenocarcinoma, dosed 52 weeks, study length 52 weeks): 86.6 mg/kg/day

Compound: CC(=O)Nc1ccc(S(=O)(=O)O)c2cc(S(=O)(=O)O)c(N=Nc3ccc(N=Nc4ccc(S(=O)(=O)O)cc4)c4ccc(S(=O)(=O)O)cc34)c(O)c12
- carcinogen call (mouse, strain CFW, females, in feed, site: liver, lesion: one or several types, types not named, dosed 80 weeks, study length 80 weeks): negative (inactive)
- carcinogen call (mouse, strain CFW, females, in feed, site: lung, lesion: adenoma, dosed 80 weeks, study length 80 weeks): negative (inactive)
- carcinogen call (mouse, strain CFW, males, in feed, site: liver, lesion: one or several types, types not named, dosed 80 weeks, study length 80 weeks): negative (inactive)
- TD50 (mouse, strain CFW, males, in feed, site: lung, lesion: adenoma, dosed 80 weeks, study length 80 weeks): 3660 mg/kg/day (inactive)
- carcinogen call (rat, strain CFE, females, in feed, site: liver, lesion: one or several types, types not named, dosed 104 weeks, study length 104 weeks): negative (inactive)
- carcinogen call (rat, strain CFE, males, in feed, site: liver, lesion: one or several types, types not named, dosed 104 weeks, study length 104 weeks): negative (inactive)

Compound: O=C1NC(O)CCN1[C@@H]1O[C@H](CO)[C@@H](O)[C@H]1O (some centres not stated)
- TD50 (rat, strain Fischer 344, males, i.p., site: any site (literature study), lesion: one or several types, types not named, dosed 52 weeks, study length 52 weeks): 15.7 mg/kg/day
